≈ marks a conversion by molar mass, not a printed value.
Experiments:
12 strains of bacteria = test: Protective effect on mouse infected with 12 strains of bacteria; type: in vivo; details: in words
Method: (§1) Test method: preparation of infection bacterial liquid: taking out the test bacterial liquid which is kept in a refrigerator at −80[…] to room temperature for about 1 h, then inoculating streptococcus pneumonia, pyogenic streptococcus and enterococcus absorbing 0.1 ml bacterial liquid respectively to 2 ml MH broth (add 10% inactivated horse serum), and inoculating 0.1 ml bacterial liquid of staphylococcus aureus to 2 ml MH broth according to the same method above; putting it in an incubator at 37[…] to be cultivated for 18 h, to obtain original bacterial liquid; diluting the original bacterial liquid with 5% gastric mucin to make animals infected with 100% lethal bacteria, to obtain infection bacterial liquid.
(§2) The clinical route of administration of carrimycin is proposed to be oral administration, thus intragastric administration is adopted in carrimychin test. Levoisovalerylspiramycin I (obtained in Embodiment 1) and of crystalline compound of levoisovalerylspiramycin I (prepared in Embodiment 27) are fed to animals via […].
(§3) After the mice are infected, respectively feed each mouse 0.2 ml via intragastric administration at 0.5 to 6 h, and they have no adverse reaction. Observe the number of deaths in 7 days, and calculate the 50% effective dose (ED50) of each drug for the infected mouse and compare the protective effect of drugs by Bliss program.

[1] = system: streptococcus pneumoniae (112); test: Clinical isolates, agar double dilution method; type: cell-based; details: 112 clinical isolates of streptococcus pneumoniae; for MIC50: read-out: MIC50; for MIC90: read-out: MIC90
staphylococcus aureus76 = test: Curative effect on mouse with abdominal infection (ED50); type: in vivo, staphylococcus aureus; details: Staphylococcus, AUREUS76, 168 h, staphylococcus aureus76, challenging dose 5.8 × 10^4 CFU/0.5 ml, deaths in 7 days, Bliss, read-out: ED50
Method: as §1, §2, §3

staphylococcus aureus12 = test: as above; type: in vivo, staphylococcus aureus; details: Staphylococcus, AUREUS12, 168 h, staphylococcus aureus12, challenging dose 4.8 × 10^4 CFU/0.5 ml, deaths in 7 days, Bliss, read-out: ED50
Method: as §1, §2, §3

staphylococcus aureus16 [2] = test: as above; type: in vivo, staphylococcus aureus; details: Staphylococcus, AUREUS16, 168 h, staphylococcus aureus16, challenging dose 5.2 × 10^3 CFU/0.5 ml, deaths in 7 days, Bliss, read-out: ED50
Method: as §1, §2, §3

staphylococcus aureus21 = test: as above; type: in vivo, staphylococcus aureus; details: Staphylococcus, AUREUS21, 168 h, staphylococcus aureus21, challenging dose 4.2 × 10^4 CFU/0.5 ml, deaths in 7 days, Bliss, read-out: ED50
Method: as §1, §2, §3

[3] = system: pyogenic streptococcus 772; test: MIC against the infecting test organism; type: cell-based; details: read-out: MIC
staphylococcus aureus16 [4] = test: MIC against the infecting test organism; type: cell-based, staphylococcus aureus; details: read-out: MIC
[5] = Acute toxicity on mice via oral administration; details: 4000 mg/kg
Method: Both mice and rats take drugs orally (levoisovalerylspiramycin I, II and III prepared in Embodiment 1)
After observing the mice and rats for two days before test, and those without abnormal conditions is carried out test. Don't give anything to eat to mice and rats overnight before test. […] In this test, feed drugs to mice and rats respectively as per 4000 mg/kg, wherein, mice follow 100 mg/ml, with intragastric administration capacity of 0.6-0.8 ml per one, while rats 173 mg/ml, with intragastric administration capacity of 0.8˜1.0 ml/50 g. Observe those taking drugs for one week for toxic reaction and death.

enterococcus32 = test: Curative effect on mouse with abdominal infection (ED50); type: in vivo, enterococcus; details: Enterococcus, 168 h, enterococcus32, challenging dose 5.4 × 10^4 CFU/0.5 ml, deaths in 7 days, Bliss, read-out: ED50
Method: as §1, §2, §3

[6] = system: staphylococcus aureus (155); test: Clinical isolates, agar double dilution method; type: cell-based; details: 155 clinical isolates of staphylococcus aureus; for MIC50: read-out: MIC50; for MIC90: read-out: MIC90
[7] = system: Mycoplasma Urealyticum and Mycoplasma Pneumoniae strains; test: Mycoplasma in vitro MIC (U-PPLO broth); type: cell-based; details: for MIC: Mycoplasma, determined 4 times, final MIC (24 h), read-out: MIC; for Uu resistant effect: in words
Method: 1. Test methods: adding U-PPLO 0.8 ml to each pore of aseptic 12-pore cell culture plate (adding 0.9 ml to inoculum control pore and 1.0 ml to medium control pore).
2. Add 10^4CCU/ml Uu inoculum 0.1 ml to each experimental pore. The final dose in the pore is 10^3CCU/ml (the medium control pore will not be added with inoculum).
3. Divide into 3 groups (100 μg/ml, 10 μg/ml and 1 μg/ml antibiotic stock solution), Use aseptic Tip to add antibiotic for test to each pore: 100 μl, 50 μl, 25 μl, 12.5 μl according to the double degradation concentration gradient. (The inoculum and medium control pores will not be added with the antibiotic, and meanwhile the antibiotic control pore is arranged.)
4. Blend all pores evenly. Seal the culture plate by tapes and place it in a 37[…] box for culture.
5. On 17-24 hours after the test, observe and record the Uu growth situation. When Uu inoculum control pore presents a positive growth, the minimal antibiotic concentration, which can suppress the growth of Uu, is the MIC of sample.

[8] = system: adult acute respiratory infections caused by sensitive bacteria; test: Clinical test versus Azithromycin, multi-center random double blind; type: in vivo; details: patients 18 to 65 years
Method: Adopt a multi-center, random, two blind, double simulation control test, which is carried out in 5 hospitals concurrently according to the unified clinical testing program.
1. Patients from 18 to 65 years old (men and women);
2. Sensitive acute respiratory infections caused by sensitive bacteria include acute bacterial pharyngitis, acute suppurative tonsillitis, acute tracheobronchitis, mild pneumonia and acute nasosinusitis etc;
3. Any subject shall sign an informed consent before being selected.
4. All subjects shall be contracepted in the research period and within at least 3 months upon being dosed.
1. Those with hepatic or renal insufficiency (Blood Cr>1.5 mg/dl and ALT>normal upper limit)
2. The women in pregnancy or lactation
3. Those with gastrointestinal tract diseases, who cannot take drugs orally.
4. Those who take antibacterial within one week before the selection.
According to statistics on the test results by statistics experts, the clinical efficacy (FAS) is: […]

[9] = system: Chlamydia Trachomatis D/UW-3/Cx; test: Chlamydia in vitro MIC, McCoy cells, immunofluorescence; type: cell-based; details: 48 hours, read-out: MIC
S. epidermidis (115) = test: Clinical isolates, agar double dilution method; type: cell-based; details: Staphylococcus epidermidis, 115 clinical isolates of S. epidermidis; for MIC50: read-out: MIC50; for MIC90: read-out: MIC90

| Structure (SMILES) | MIC50 [1] [µg/mL] | MIC90 [1] [µg/mL] | ED50 (staphylococcus aureus76) [mg/kg] | ED50 (staphylococcus aureus12) [mg/kg] | ED50 (staphylococcus aureus16 [2]) [mg/kg] | ED50 (staphylococcus aureus21) [mg/kg] | MIC [3] [µg/mL] | MIC (staphylococcus aureus16 [4]) [µg/mL] | LD50 at 1 week ([5]; mouse, in vivo, po) [mg/kg] | ED50 (enterococcus32) [mg/kg] | MIC50 [6] [µg/mL] | MIC90 [6] [µg/mL] | MIC [7] [µg/mL] | Uu resistant effect [7] | adverse reaction [8] [%] | clearance of pathogens [8] [%] | clinical efficacy (FAS) [8] [%] | MIC [9] [µg/mL] | MIC50 (S. epidermidis (115)) [µg/mL] | MIC90 (S. epidermidis (115)) [µg/mL] | also measured |
| --- | --- | --- | --- | --- | --- | --- | --- | --- | --- | --- | --- | --- | --- | --- | --- | --- | --- | --- | --- | --- | --- |
| COC1C(O)CC(=O)OC(C)C/C=C/C=C/C(OC2CCC(N(C)C)C(C)O2)C(C)CC(CC=O)C1OC1OC(C)C(OC2CC(C)(O)C(OC(=O)CC(C)C)C(C)O2)C(N(C)C)C1O (stereo not drawn) [Levoisovalerylspiramycin I, levoisovalerylspiramycin I] | 0.12 (≈ 0.129 µM) | 2 (≈ 2.16 µM) | 24.4 | 110 | 23.5 | 42.7 | 0.06 (≈ 0.0647 µM) | 0.5 (≈ 0.539 µM) | > 4000 | 77.5 | 1 (≈ 1.08 µM) | 64 (≈ 69 µM) | 0.025 to 0.125 (≈ 0.027 to 0.135 µM) | favorable Uu resistant effect | 2.5 | 97.56 | 92.30 | 0.25 (≈ 0.27 µM) | 1 (≈ 1.08 µM) | 32 (≈ 34.5 µM) | protective effect (curative effect) on infected mouse (12 strains of bacteria): good protective effect; Mortality rate (%) ([5]; mice, oral): 35%; mortality ([5]; mice, oral, deaths of 20 animals, observed one week): 7 |
| COC1C(OC(C)=O)CC(=O)OC(C)C/C=C/C=C/C(OC2CCC(N(C)C)C(C)O2)C(C)CC(CC=O)C1OC1OC(C)C(OC2CC(C)(O)C(OC(=O)CC(C)C)C(C)O2)C(N(C)C)C1O (stereo not drawn) [Levoisovalerylspiramycin II, levoisovalerylspiramycin II] | 0.12 (≈ 0.124 µM) | 2 (≈ 2.06 µM) | 22.3 | 108 | 20.9 | 38.9 | 0.06 (≈ 0.0619 µM) | 0.25 (≈ 0.258 µM) | > 4000 | 70.2 | 1 (≈ 1.03 µM) | 32 (≈ 33 µM) | 0.025 to 0.125 (≈ 0.0258 to 0.129 µM) | favorable Uu resistant effect | 2.5 | 97.56 | 92.30 | 0.25 (≈ 0.258 µM) | 1 (≈ 1.03 µM) | 64 (≈ 66 µM) | Mortality rate (%) ([5]; mouse, in vivo, po, 1 week): 35%; mortality ([5]; mouse, in vivo, po, 1 week): 7 |
| CCC(=O)OC1CC(=O)OC(C)C/C=C/C=C/C(OC2CCC(N(C)C)C(C)O2)C(C)CC(CC=O)C(OC2OC(C)C(OC3CC(C)(O)C(OC(=O)CC(C)C)C(C)O3)C(N(C)C)C2O)C1OC (stereo not drawn) [Levoisovalerylspiramycin III, levoisovalerylspiramycin III] | 0.12 (≈ 0.122 µM) | 4 (≈ 4.07 µM) | 22.3 | 108 | 20.9 | 38.9 | 0.06 (≈ 0.061 µM) | 0.25 (≈ 0.254 µM) | > 4000 | 70.2 | 2 (≈ 2.03 µM) | 32 (≈ 32.5 µM) | – | favorable Uu resistant effect | 2.5 | 97.56 | 92.30 | 0.25 (≈ 0.254 µM) | 1 (≈ 1.02 µM) | 32 (≈ 32.5 µM) | Mortality rate (%) ([5]; mouse, in vivo, po, 1 week): 35%; mortality ([5]; mouse, in vivo, po, 1 week): 7 |
| CC[C@H]1OC(=O)[C@H](C)[C@@H](O[C@H]2C[C@@](C)(OC)[C@@H](O)[C@H](C)O2)[C@H](C)[C@@H](O[C@@H]2O[C@H](C)C[C@H](N(C)C)[C@H]2O)[C@](C)(O)C[C@@H](C)CN(C)[C@H](C)[C@@H](O)[C@]1(C)O [azithromycin, reference compound] | 0.25 (≈ 0.334 µM) | 8 (≈ 10.7 µM) | 58.8 | 120 | 32 | 143 | 0.25 (≈ 0.334 µM) | 0.5 (≈ 0.668 µM) | – | 147 | 2 (≈ 2.67 µM) | > 64 | – | – | 7.6 | 92.86 | 89.61 | 0.25 (≈ 0.334 µM) | 8 (≈ 10.7 µM) | > 64 | – |
| CC[C@H]1OC(=O)[C@H](C)[C@@H](O[C@H]2C[C@@](C)(OC)[C@@H](O)[C@H](C)O2)[C@H](C)[C@@H](O[C@@H]2O[C@H](C)C[C@H](N(C)C)[C@H]2O)[C@](C)(O)C[C@@H](C)C(=O)[C@H](C)[C@@H](O)[C@]1(C)O [erythrocin, reference compound] | 0.25 (≈ 0.341 µM) | 64 (≈ 87.2 µM) | 64.2 | 266 | 82.4 | 214 | 0.5 (≈ 0.681 µM) | 1 (≈ 1.36 µM) | – | 175 | 1 (≈ 1.36 µM) | > 64 | 5 (≈ 6.81 µM) | poorest | – | – | – | 0.5 (≈ 0.681 µM) | 8 (≈ 10.9 µM) | > 64 | – |
